Experimental findings from patent publication EP0471841A1, “SULFONAMIDE DERIVATIVE AND PHARMACEUTICAL COMPOSITION CONTAINING THE SAME” (Asahi Kasei Kogyo Kabushiki Kaisha, priority 1990, dated 1991) are described below.

Each structure is given as a SMILES string. Where a name gives a salt, the structure may show the parent alone.

For one assay, the system named is trachea. The experiment in a line: Effect on trachea in vivo: inhibition of histamine-induced tracheal contraction (modified Konzett-Rössler method). The following applies: Cavia porcellus, iv, 0.05 h; compound 1 mg/kg through the femoral vein, histamine 20 µg/kg through the femoral vein 3 minutes later; anesthetized male guinea pigs; compounds used as hydrochloride; 3 animals per group; read-out: Inhibition of tracheal con-traction. From the text:
Further, the inhibiting action of the compound of the present invention on the histamine-induced contraction of the trachea of a guinea pig was examined by in vivo experiment. As a result, the in vivo bronchodilation action was confirmed.
According to a modified method of Konzett-Rössler method [see J. Martinez et al, Bronchial Arterial Injections, vol. 33, 295, (1961); Masaaki Takai et al, Oyo Yakuri (Applied Pharmacology), vol. 17, p.345, (1979)], effect of the compounds of the present invention on trachea in vivo was examined. Of compounds 3, 4, 30, 31, 36, 38, 48, 54 and 55, which were used herein, compounds other than acid addition salts were individually subjected to testing in the form of a hydrochloride which was obtained in the same manner as described in Example 61. Urethane was intraperitoneally administered to male guinea pigs weighing 350 to 600 g (Hartley strain, Kuroda Junkei Dobutsu) in an amount of 1.5 g/kg of body weight to anesthetize the animals. Then, cannulae were inserted into the trachea and femoral vein of each animal under urethane anesthesia and fixed. The inserted tracheal cannula was connected to a respirator for small animal (model 1683, manufactured by Harvard Co., Ltd.) and a pneumotachometer (model MHF-1200, manufactured by Nihon Kohden Corp.) through a bottle containing water, the water surface of which was adjusted to a level which is 10 cm high from the bottom, and a respiratory volume was determined.
Each of the above-mentioned compounds of the present invention was administered to guinea pigs through the femoral vein in an amount of 1 mg/kg of body weight. After 3 minutes from the administration, histamine was administered to the same guinea pigs through the femoral vein in an amount of 20 µg/kg of body weight, to thereby induce contraction of trachea and the inhibition of the histamine-induced tracheal contraction by each of the above-described compounds of the present invention was determined. For comparison, the inhibition of histamine-induced tracheal contraction by each of aminophylline, comparative compound (1) and comparative compound (2) was determined in substantially the same manner as described above. As a solvent for each compound, physiological saline was used. The number of the guinea pigs tested in each group was 3.

The subject of assay [1] is tracheal specimens excised from guinea pigs. The experiment in a line: Inhibitory effect on PGF2α-induced contraction of tracheal specimens excised from guinea pigs (Magnus tube). It counts as cell-based. The following applies: Cavia porcellus, dose required for relaxing PGF2α-induced contraction to 50 %; PGF2α final concentration: 1 µm; compounds used as hydrochloride; 3 specimens per group; read-out: PGF2α-induced contraction ED50. The procedure:
(§1) The bronchial smooth muscle-relaxing action of the sulfonamide derivative of the present invention was evaluated by the effect on suppression of KCl-induced contraction and PGF2α-induced contraction of bronchial specimens excised from guinea pigs.
Tracheal specimens excised from male guinea pigs weighing 350 to 500 g (Hartley strain, Kuroda Junkei Dobutsu) were contracted in substantially the same manner as in Application Example 1 except that PGF2α (final concentration: 1 µm) was used instead of KCl. After the contraction of the tracheal specimens became stable, each of the compounds (hydrochloride) of the present invention was dissolved in distilled water or physiological saline, and the compound solution was cumulatively added into the Magnus tube in the same manner as in Application Example 1. The relaxing effect of each of the compounds of the present invention on the contracted specimens was evaluated and a dose-response curve was obtained. The dose required for relaxing PGF2α-induced contraction to 50 %, i.e., ED₅₀ was calculated form the dose-response curve. Of compounds 3, 4, 30, 31, 36, 38, 48, 54 and 55, which were imdividually used herein, compounds other than acid addition salts were used in the form of a hydrochloride which was obtained in the same manner as described in Example 61. For comparison, the same procedure as described above was repeated except that aminophylline, comparative compound (1) and comparative compound (2) were individually used instead of the compound of the present invention, to obtain an ED₅₀. The number of specimens in each group was 3.

For assay [2] the test system is unchanged. The experiment in a line: Inhibitory effect on KCl-induced contraction of tracheal specimens excised from guinea pigs (Magnus tube). It counts as cell-based. The note with it: Cavia porcellus; dose required for relaxing KCl-induced contraction to 50 %; final KCl concentration: 20 mM; 37 °C; compounds other than acid addition salts used as hydrochloride; 3 specimens per group; read-out: ED₅₀ Effect on KCl-induced contraction. On the procedure:
as §1
According to a method in which tracheal specimens excised from guinea pigs were used (Takagi and Ozawa, "Yakubutsugaku Jikken (Experiments in Pharmacology)", pp.100-102, 1960, published by Nanzando Japan; and Fujiwara and Shibata, "Yakurigaku Kiso Jikenho (Methods of Fundamental Experiments in Pharmacology)" pp.131-134, 1982, published by Kyourin, Japan), relaxing effect of sulfonamide derivatives of the present invention on bronchial smooth muscle was examined. Of compounds (1) to (69) shown herein, compounds other than acid addition salts were individually used in the form of a hydrochloride which was obtained by the same method as described in Example 61.
From male guinea pigs weighing 350 to 500 g (Hartley strain, Kuroda Junkei Dobutsu), tracheas were excised and each of the excised tracheal specimens was hung in 20 ml of a Magnus tube filled with Krebs-Henseleit solution under isotonic conditions and the solution temperature was kept at 37 °C. An aqueous KCl solution was dropwise added into the Magnus tube (final KCl concentration: 20 mM) to contract the tracheal specimen. After the KCl-induced contraction became stable, each of the compounds of the present invention was dissolved in distilled water or physiological saline, and the compound solution was cumulatively added into the Magnus tube. The relaxing effect of each of the compounds of the present invention on contracted tracheal specimens was evaluated and a dose-response curve was obtained.
A dose required for relaxing KCl-induced contraction to 50 %, i.e., ED₅₀ was calculated from the dose-response curve. For comparison, the same method as described above was repeated except that aminophylline was used, to thereby determine an ED₅₀. The number of tracheal specimens in each group was 3.

Turning to `O=S(=O)(NCCNCc1ccc2c(c1)OCO2)c1cccc2cnccc12` [(3), N-[2(3,4-methylenedioxybenzylamino)ethyl]-5-isoquinolinesulfonamide], in the assay on trachea, the inhibition in vivo at 1 mg/kg is 36%. For the same molecule, the EC50 amounted to 23 µM in assay [1] and 5.2 µM in assay [2].
As to `Cn1c(=O)c2[nH]cnc2n(C)c1=O` [Aminophylline, aminophylline, reference compound], in the assay with trachea, the inhibition in vivo at 1 mg/kg was 7%. Besides, the EC50 in assay [1] is > 200 µM.
Regarding `O=S(=O)(NCCN1CCN(Cc2ccc3c(c2)OCO3)CC1)c1cccc2cnccc12` [(30), 1-(5-isoquinolinesulfonylaminoethyl)-4-(3,4-methylenedioxybenzyl)piperazine], the EC50 in assay [1] was determined as 43 µM; in assay [2], 16 µM.
In the case of `NC1CCCN(S(=O)(=O)c2cccc3cnccc23)C1` (stereo not drawn) [Comparative compound (2), 1-(5-isoquinolinesulfonyl)-3-aminopiperidine hydrochloride, reference compound], the inhibition in vivo at 1 mg/kg in the assay on trachea stood at 12%. Moreover, the EC50 in assay [1] was 93 µM.
Regarding `CCOc1ccc(S(=O)(=O)N2CCCNCC2)c2cccnc12` [(55), 1-(8-ethoxy-5-quinolinesulfonyl)homopiperazine], the inhibition in vivo at 1 mg/kg in the assay on trachea is 23%. Besides, the EC50 in assay [1] was 71 µM; in assay [2] it was 45 µM.
In the same order, the values of `O=S(=O)(NCCNCc1ccc2c(c1)OCO2)c1cccc2c(O)nccc12` [(4), N-[2-(3,4-methylenedioxybenzylamino)ethyl]-1-hydroxy-5-isoquinolinesulfonamide hydrochloride] are 25%, 5 µM and 10 µM.
For `O=S(=O)(NCCN1CCCN(Cc2ccc3c(c2)OCO3)CC1)c1ccc(Cl)c2ncccc12` [(38), 1-(8-chloro-5-quinolinesulfonylaminoethyl)-4-(3,4-methylenedioxybenzyl)homopiperazine], the EC50 worked out at 74 µM in assay [1] and 26 µM in assay [2].
For the molecule `O=S(=O)(NCCN1CCCN(Cc2ccc3c(c2)OCO3)CC1)c1cccc2cnccc12` [(31), 1-(5-isoquinolinesulfonylaminoethyl)-4-(3,4-methylenedioxybenzyl)homopiperazine], the values for the EC50 in assay [1] and in assay [2] were 31 µM and 13 µM, respectively.
For `CCOc1ccc(S(=O)(=O)NCCN2CCCN(Cc3ccc4c(c3)OCO4)CC2)c2cccnc12` [(48), 1-(8-ethoxy-5-quinolinesulfonylaminoethyl)-4-(3,4-methylenedioxybenzyl)homopiperazine], the inhibition in vivo at 1 mg/kg with trachea worked out at 33%. The EC50 amounted to 82 µM in assay [1] and 37 µM in assay [2].
In the same order, the values of `O=S(=O)(c1ccc(Cl)c2ncccc12)N1CCCNCC1` [(54), 1-(8-chloro-5-quinolinesulfonyl)homopiperazine] are 30%, 65 µM and 38 µM.
`O=S(=O)(NCCN1CCCN(Cc2ccc(Cl)cc2)CC1)c1ccc(Cl)c2ncccc12` [(40), 1-(8-chloro-5-quinolinesulfonylaminoethyl)-4-(4-chlorobenzyl)homopiperazine]: the EC50 in assay [2] amounted to 68 µM.
Same read-out and setting: the figure for `O=S(=O)(NCCNCc1cccc(Cl)c1)c1ccc(Cl)c2ncccc12` [(10), N-[2-(3-chlorobenzylamino)ethyl]-8-chloro-5-quinolinesulfonamide] is 120 µM; for `CCOc1ccc(S(=O)(=O)NCCNCc2ccc(OC)c(OC)c2)c2cccnc12` [(23), N-[2-(3,4-dimethoxybenzylamino)ethyl]-8-ethoxy-5-quinolinesulfonamide] it is 163 µM.
For the molecule `O=S(=O)(NCCN1CCCNCC1)c1ccc(Cl)c2ncccc12` [(36), 1-(8-chloro-5-quinolinesulfonylaminoethyl)homopiperazine], the EC50 came out at 91 µM in assay [1] and 43 µM in assay [2].
In the case of `O=S(=O)(NCCNCCc1ccc2c(c1)OCO2)c1cccc2c(O)nccc12` [(2), N-[2-(3,4-methylenedioxyphenethylamino)ethyl]-1-hydroxy-5-isoquinolinesulfonamide hydrochloride], the EC50 in assay [2] was found to be 15 µM.
Same read-out and setting: the figure for `O=S(=O)(NCCN1CCNCC1)c1cccc2cnccc12` [(28), 1-(5-isoquinolinesulfonylaminoethyl)piperazine] is 24 µM.
For the molecule `CCCCCCN(CCN)S(=O)(=O)c1cccc2cnccc12` [Comparative compound (1), N-(2-aminoethyl)-N-hexyl-5-isoquinolinesulfonamide hydrochloride, reference compound], the inhibition in vivo at 1 mg/kg in the assay on trachea worked out at 9%. Further, the EC50 in assay [1] turned out to be 101 µM.
Turning to `CCOc1ccc(S(=O)(=O)NCCN2CCCN(Cc3ccc(Cl)cc3)CC2)c2cccnc12` [(50), 1-(8-ethoxy-5-quinolinesulfonylaminoethyl)-4-(4-chlorobenzyl)homopiperazine], in assay [2], the EC50 amounted to 81 µM.
The same measure, in the same setting: the same measure for `O=S(=O)(NCCNCCc1ccc2c(c1)OCO2)c1ccc(Cl)c2ncccc12` [(9), N-[2-(3,4-methylenedioxyphenethylamino)ethyl]-8-chloro-5-quinolinesulfonamide]: 30 µM; for `CCOc1ccc(S(=O)(=O)N2CCNCC2)c2cccnc12` [(57), 1-(8-ethoxy-5-quinolinesulfonyl)piperazine]: 57 µM; for `COc1ccc(CCN2CCN(CCNS(=O)(=O)c3ccc(Cl)c4ncccc34)CC2)cc1OC` [(43), 1-(8-chloro-5-quinolinesulfonylaminoethyl)-4-(3,4-dimethoxyphenethyl)piperazine]: 106 µM.
Turning to `CCOc1ccc(S(=O)(=O)NCCNCc2ccccc2)c2cccnc12` [(25), N-(2-benzylaminoethyl)-8-ethoxy-5-quinolinesulfonamide], in assay [2], the EC50 turned out to be 105 µM.
